Measurements published in ChEMBL document CHEMBL5365500, “Development and Antibacterial Properties of 4-[4-(Anilinomethyl)-3-phenylpyrazol-1-yl]benzoic Acid Derivatives as Fatty Acid Biosynthesis Inhibitors” (J Med Chem, 2023).
Values after ≈ are worked out from the molar mass of the structure shown. Active and inactive are the calls of the source. The calls are words filed in the database; no cut-off is given here.

What was measured:
[1] = system: Staphylococcus aureus; test: In vivo antimicrobial activity against Staphylococcus aureus USA300 infected in Caenorhabditis elegans AU37 nematodes assessed as viability of nematodes incubated for 5 days by susceptibility test; format: functional; details: USA300, 120 h, time 5 day
[2] = system: Erythrocyte; test: Hemolytic activity in sheep red blood cells assessed as hemolysis at 64 ug/ml incubated for 30 mins relative to control; format: toxicity, cell-based, Ovis aries; details: 0.5 h, at 64 µg/mL
[3] = system: Panel NCI-60 (60 carcinoma cell lines); test: Cytotoxicity against human panel NCI-60 (60 carcinoma cell lines)cells assessed as cell viability at 10 uM measured after 24 hrs by resazurin assay; format: functional, cell-based
[4] = system: Erythrocyte; test: Hemolytic activity in sheep red blood cells assessed as hemolysis at 16 to 32 ug/ml incubated for 30 mins relative to control; format: toxicity, cell-based, Ovis aries; details: 0.5 h, dose 16-32 µg/ml
[5] = system: Staphylococcus aureus; test: Antimicrobial activity against methicillin-resistant Staphylococcus aureus USA300 infected in liquid-based Caenorhabditis elegans co-infection model assessed as rescue of worms by measuring viability at 2 ug/ml incubated for 5 days (reference value: 20%); format: functional; details: dose 2 µg/ml; time 5 day
[6] = system: Cell membrane; test: Induction of membrane permeability in Staphylococcus aureus ATCC 700699 assessed as increase in fluorescence intensity at 2 times of MIC incubated for 15 mins measured for 1 hr by propidium iodide/real time fluorescence based flow cytometry Rvb = 3.5); format: subcellular; details: time 75.0 min
[7] = Toxicity in Caenorhabditis elegans AU37 assessed as survival at 20 ug/ml measured for 4 days; details: at 20 µg/mL, time 4 day
[8] = system: Enterococcus faecium; test: Antimicrobial activity against Enterococcus faecium […] assessed as inhibition of biofilm formation after 24 hrs incubation by Real-time monitoring method; format: functional
[9] = system: Staphylococcus aureus; test: In vivo antimicrobial activity against Staphylococcus aureus UAMS-1 infected in Caenorhabditis elegans AU37 nematodes assessed as viability of nematodes incubated for 5 days by susceptibility test; format: functional; details: UAMS-1, 120 h, time 5 day
[10] = system: Staphylococcus aureus; test: Antimicrobial activity against methicillin-resistant Staphylococcus aureus USA300 infected in liquid-based Caenorhabditis elegans co-infection model assessed as rescue of worms by measuring viability at 4 ug/ml incubated for 5 days (reference value: 20%); format: functional; details: dose 4 µg/ml; time 5 day
[11] = system: Staphylococcus aureus; test: Antimicrobial activity against clinical isolate Staphylococcus aureus Smu9 assessed as inhibition of growth measured after 20 to 24 hrs incubation by CLSI method; format: functional; details: time 20-24 hrs
[12] = system: Cell membrane; test: Induction of membrane permeability in Staphylococcus aureus ATCC 700699 assessed as increase in fluorescence at 0.5 to 2 times of MIC incubated for 15 mins measured for 1 hr by propidium iodide/real time fluorescence based flow cytometry; format: subcellular; details: time 75.0 min
[13] = system: Enterococcus faecalis; test: Antimicrobial activity against Enterococcus faecalis ATCC 29212 assessed as inhibition of biofilm formation by measuring prevention of turbidity after 24 hrs incubation by Real-time monitoring method; format: functional
[14] = system: Cell membrane; test: Induction of membrane permeability in Staphylococcus aureus ATCC 700699 assessed as increase in fluorescence intensity at 1 times of MIC incubated for 15 mins measured for 1 hr by propidium iodide/real time fluorescence based flow cytometry Rvb = 3.5); details: time 75.0 min
[15] = system: Staphylococcus aureus; test: Antimicrobial activity against clinical isolate Staphylococcus aureus Smu81 assessed as inhibition of growth measured after 20 to 24 hrs incubation by CLSI method; format: functional; details: time 20-24 hrs
[16] = system: Staphylococcus aureus; test: Antimicrobial activity against antibiotic-resistant Staphylococcus aureus ATCC BAA-2312 assessed as inhibition of visible growth measured after 20 to 24 hrs incubation by CLSI method; format: functional; details: time 20-24 hrs
[17] = system: Enterococcus faecalis; test: Antimicrobial activity against antibiotic-susceptible Enterococcus faecalis ATCC 29212 assessed as inhibition of biofilm formation by measuring prevention of turbidity after 24 hrs incubation by Real-time monitoring method; format: functional
[18] = Toxicity in Caenorhabditis elegans AU37 assessed as survival at 4 ug/ml measured for 4 days; details: 96 h, dose 4 µg/ml, time 4 day
[19] = system: Bacillus subtilis; test: Antimicrobial activity against antibiotic-resistant Bacillus subtilis ATCC 6623 assessed as inhibition of visible growth measured after 20 to 24 hrs incubation by CLSI method; format: functional; details: time 20-24 hrs
[20] = system: Staphylococcus aureus; test: Bactericidal activity in antibiotic-resistant Staphylococcus aureus ATCC 700699 assessed as reduction in viable cell count at 4 times of MIC measured upto 24 hrs by time kill assay; format: functional, organism-based
[21] = system: Staphylococcus aureus; test: Antimicrobial activity against antibiotic-resistant Staphylococcus aureus ATCC 33592 assessed as inhibition of visible growth measured after 20 to 24 hrs incubation by CLSI method; format: functional; details: time 20-24 hrs
[22] = system: Cell membrane; test: Induction of membrane permeability in Staphylococcus aureus ATCC 700699 assessed as increase in fluorescence at 8 times of MIC incubated for 15 mins measured for 1 hr by propidium iodide/real time fluorescence based flow cytometry; format: subcellular
[23] = system: Cell membrane; test: Induction of membrane permeability in Staphylococcus aureus ATCC 700699 assessed as increase in fluorescence at 4 times of MIC incubated for 15 mins measured for 1 hr by propidium iodide/real time fluorescence based flow cytometry; format: subcellular; details: time 75.0 min
[24] = system: Staphylococcus aureus; test: Antimicrobial activity against methicilline-resistant Staphylococcus aureus ATCC 700699 persisters assessed as bacterial killing at 32 time of MIC concentration measured for every 2 hrs upto 8 hrs by Persisters time course assay; format: functional, organism-based
[25] = system: Staphylococcus aureus; test: Antimicrobial activity against Staphylococcus aureus ATCC 25923 assessed as inhibition of biofilm formation by measuring prevention of turbidity after 24 hrs incubation by Real-time monitoring method; format: functional
[26] = system: Staphylococcus aureus; test: In vivo antimicrobial activity against Staphylococcus aureus Newman infected in Caenorhabditis elegans AU37 nematodes assessed as viability of nematodes incubated for 5 days by susceptibility test; format: functional; details: 120 h, time 5 day
[27] = system: Staphylococcus aureus; test: Antimicrobial activity against clinical isolate Staphylococcus aureus Smu21 assessed as inhibition of growth measured after 20 to 24 hrs incubation by CLSI method; format: functional; details: time 20-24 hrs
[28] = system: Staphylococcus aureus; test: Antimicrobial activity against antibiotic-resistant Staphylococcus aureus ATCC 33591 assessed as inhibition of visible growth measured after 20 to 24 hrs incubation by CLSI method; format: functional; details: time 20-24 hrs
[29] = system: Staphylococcus aureus; test: Antimicrobial activity against Staphylococcus aureus UAB159 assessed as inhibition of growth measured after 20 to 24 hrs incubation by CLSI method; format: functional; details: time 20-24 hrs
[30] = system: Cell membrane; test: Induction of membrane permeability in Staphylococcus aureus ATCC 700699 assessed as increase in fluorescence intensity at 4 times of MIC incubated for 15 mins measured for 1 hr by propidium iodide/real time fluorescence based flow cytometry Rvb = 3.5); details: time 75.0 min
[31] = system: Staphylococcus aureus; test: Antimicrobial activity against methicillin-resistant Staphylococcus aureus USA300 infected in liquid-based Caenorhabditis elegans co-infection model assessed as rescue of worms by measuring viability at 1 ug/ml incubated for 5 days (reference value: 20%); format: functional; details: dose 1 µg/ml; time 5 day

For `O=C(O)c1ccc(-n2cc(CNc3ccc(Cl)c(C(F)(F)F)c3)c(-c3cccc(F)c3)n2)cc1`, the MIC [1] was 2 µg/mL (≈ 4.08 µM), the Activity [2] was < 10% and the Activity [3] was “inactive”. The Activity [4] was “Non-Toxic”, the Activity [5] was 90% and the Activity [6] was 32.3%. The survival at 96 h, 20 ug/ml [7] was > 80%, the MBIC [8] was 8 µg/mL and the MIC [9] was 1 µg/mL (≈ 2.04 µM). The Activity [10] was 90%, the MIC [11] was 2 µg/mL (≈ 4.08 µM) and the Activity [12] was “inactive”. The MIC [13] was 8 µg/mL (≈ 16.3 µM), the Activity [14] was 22.3% and the MIC [15] was 4 µg/mL (≈ 8.17 µM). For the same molecule, the MIC [16] was 1 µg/mL (≈ 2.04 µM), the MBBC [17] was 16 µg/mL and the Activity [18] was “Non-Toxic”. The MIC [19] was 0.5 µg/mL (≈ 1.02 µM), the Activity [20] was “Active” and the MIC [21] was 1 µg/mL (≈ 2.04 µM). For the same molecule, the Activity [22] was “inactive”, the Activity [23] was “Active” and the Activity [24] was “Active”. It also gave an MIC [25] of 4 µg/mL (≈ 8.17 µM), an MIC [26] of 1 µg/mL (≈ 2.04 µM) and an MIC [27] of 4 µg/mL (≈ 8.17 µM). For the same molecule, the MIC [28] was 1 µg/mL (≈ 2.04 µM), the MIC [29] was 4 µg/mL (≈ 8.17 µM) and the Activity [30] was 95.6%. It also gave an Activity [31] of 90%.
